Patent US9938273B2 (Plexxikon Inc., priority 2015, dated 2018)
pIC50: −log10 of the molar value.

Experiments:
FLT3-ITD = target: T1, FLT3-ITD (Homo sapiens, UniProt P36888); experiment: AlphaScreen kinase assay with recombinant enzyme, FLT3-ITD; assay type: biochemical; details: 8pt; read-out: FLT3_ITD 8pt: IC50
T1 sequence (P36888 1-993): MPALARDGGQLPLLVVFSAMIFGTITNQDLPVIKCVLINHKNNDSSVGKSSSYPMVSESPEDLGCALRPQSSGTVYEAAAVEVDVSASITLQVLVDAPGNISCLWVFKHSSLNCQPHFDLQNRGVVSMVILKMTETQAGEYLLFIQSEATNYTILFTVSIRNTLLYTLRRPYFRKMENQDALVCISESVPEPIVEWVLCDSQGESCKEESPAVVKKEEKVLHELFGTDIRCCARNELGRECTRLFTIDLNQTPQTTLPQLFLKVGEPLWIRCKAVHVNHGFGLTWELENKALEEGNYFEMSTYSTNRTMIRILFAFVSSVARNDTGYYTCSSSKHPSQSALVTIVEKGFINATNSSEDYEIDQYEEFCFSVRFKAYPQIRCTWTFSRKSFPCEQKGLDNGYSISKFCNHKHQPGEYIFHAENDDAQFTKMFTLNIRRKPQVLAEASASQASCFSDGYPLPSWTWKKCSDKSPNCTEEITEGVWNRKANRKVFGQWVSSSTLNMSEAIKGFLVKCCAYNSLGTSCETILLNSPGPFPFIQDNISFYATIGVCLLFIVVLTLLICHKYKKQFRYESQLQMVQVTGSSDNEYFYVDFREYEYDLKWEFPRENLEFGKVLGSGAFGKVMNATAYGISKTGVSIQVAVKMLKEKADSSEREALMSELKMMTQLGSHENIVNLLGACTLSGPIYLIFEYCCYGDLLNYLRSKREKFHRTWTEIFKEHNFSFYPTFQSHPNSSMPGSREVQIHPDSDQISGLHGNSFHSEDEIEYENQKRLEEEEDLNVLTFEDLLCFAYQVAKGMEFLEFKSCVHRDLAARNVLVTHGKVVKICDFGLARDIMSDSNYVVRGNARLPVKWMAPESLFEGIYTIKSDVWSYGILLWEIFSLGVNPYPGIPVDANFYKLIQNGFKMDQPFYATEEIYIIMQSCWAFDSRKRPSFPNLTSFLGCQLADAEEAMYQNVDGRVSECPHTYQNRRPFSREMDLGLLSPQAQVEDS
Experimental: In order to determine the effect of compounds on FLT3 catalytic activity, kinase assays using recombinant enzymes and AlphaScreen® technology have been established. The catalytic activity of c-kit activity was also measured to determine selectivity of the compounds. When the kinases are catalytically active, they phosphorylate a biotinylated peptide substrate on tyrosine residues. Using AlphaScreen® technology, the ability of the compounds to affect the catalytic activity of the kinases can be measured quantitatively. The peptide substrate is immobilized by the AlphaScreen® Streptavidin Donor beads and, upon phosphorylation by a tyrosine kinase, can bind to AlphaScreen® Anti-Phosphotyrosine (PY20) Acceptor beads. Upon excitation of these beads with laser light at 680 nm, singlet oxygen is produced. This singlet oxygen is rapidly quenched, unless the AlphaScreen® Anti-Phosphotyrosine (PY20) Acceptor beads are in close proximity, in which case a proximity signal can be measured at 580 nm. In the presence of catalytic activity, there is a very strong proximity signal. Selective kinase inhibitors affect a decrease in this proximity signal through a decrease in tyrosine phosphorylation of the peptide substrate.
The assay was performed as summarized below.
Poly (Glu4-Tyr) Peptide, biotin conjugate [Biotin-GG(EEEEY)10EE] (SEQ ID NO: 4)
Final concentration=30 nM
Final concentration for IC50 determination=10 μM (FLT3-D835Y or FLT3-ITD) or 100 μM (c-KIT)
AlphaScreen® Phosphotyrosine (PY20) Assay Kit
Final concentration=10 μg/mL
Dilute compounds in DMSO to 20× final concentration.
Add 1 μl of compound to each well of 384 well reaction plate (Perkin Elmer #6005359).
Mix enzyme and Poly (Glu4-Tyr) Peptide substrate at 1.33× final concentration in assay buffer.
Mix ATP at 5× final concentration in assay buffer.
Add 15 μL enzyme/substrate mixture to the reaction plate.
Add 4 μL of ATP to the reaction plate.
Mix Streptavidin Donor beads at 6× final concentration in Stop/Detection buffer.
Add 5 μL Streptavidin Donor beads to the reaction plate. Centrifuge 1 minute, shake to mix, and incubate at room temperature for 20 minutes.
Mix Anti-Phosphotyrosine (PY20) Acceptor beads at 6× final concentration in Stop/Detection buffer.
Add 5 μL Anti-Phosphotyrosine (PY20) beads to the reaction plate.
Centrifuge 1 minute, shake to mix, and incubate at room temperature for 60 minutes.
Read plate on Wallac EnVision™ 2103 Multilabel Reader.

[1] = tested on: MOLM-14 D835Y cells, FLT3 ITD and FLT3 D835Y; experiment: Cell proliferation assay (CellTiter-Glo), MOLM-14 D835Y; assay type: cell-based; details: Homo sapiens, 72 h, 3d-Growth, GMean
Procedure, shortened: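 MOLM-14 AML cells (endogenous FLT3 ITD, AC220-selected D835Y or F691L variants) or murine Ba/F3 expressing full-length FLT3 ITD/D835Y, without IL-3 for FLT3 dependence, 1×10^4 cells/well. Eight-point 1:3 series from 1 μM final, 0.2% DMSO, 3 days at 37 °C. CellTiter-Glo luminescence (ATP) gave IC50.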

| SMILES | pIC50 (FLT3-ITD) | pIC50 [1] |
| --- | --- | --- |
| CC(C)(C#N)NC(=O)c1cccc(-c2cnc3[nH]c(-c4ccccc4)cc3c2)n1 [Compound P-0118, N-(1-cyano-1-methyl-ethyl)-6-(2-phenyl-1H-pyrrolo[2,3-b]pyridin-5-yl)pyridine-2-carboxamide] | 5.00 to 10.00 | 5.00 to 10.00 |
| CN(CCC#N)C(=O)c1cccc(-c2cnc3[nH]c(-c4ccccc4)cc3c2)n1 [Compound P-0119, N-(2-cyanoethyl)-N-methyl-6-(2-phenyl-1H-pyrrolo[2,3-b]pyridin-5-yl)pyridine-2-carboxamide] | 5.00 to 10.00 | 5.00 to 10.00 |
| CC(C)(C#N)CNC(=O)c1cccc(-c2cnc3[nH]c(C4=CCCCC4)cc3c2)n1 [Compound P-0123, N-(2-cyano-2-methyl-propyl)-6-[2-(cyclohexen-1-yl)-1H-pyrrolo[2,3-b]pyridin-5-yl]pyridine-2-carboxamide] | 5.00 to 10.00 | 5.00 to 10.00 |
| N#CCCNC(=O)c1cccc(-c2cnc3[nH]c(-c4ccccc4)c(Cl)c3c2)n1 [Compound P-0125, 6-(3-chloro-2-phenyl-1H-pyrrolo[2,3-b]pyridin-5-yl)-N-(2-cyanoethyl)pyridine-2-carboxamide] | 5.00 to 10.00 | 5.00 to 10.00 |
| CC(C)(C#N)CNC(=O)c1cccc(-c2cnc3[nH]c(-c4ccccc4)c(Br)c3c2)n1 [Compound P-0126, 6-(3-bromo-2-phenyl-1H-pyrrolo[2,3-b]pyridin-5-yl)-N-(2-cyano-2-methyl-propyl)pyridine-2-carboxamide] | 5.00 to 10.00 | 5.00 to 10.00 |
| CC(C)(C#N)CNC(=O)c1cccc(-c2cnc3[nH]c(-c4ccccc4)c(I)c3c2)n1 [Compound P-0127, N-(2-cyano-2-methyl-propyl)-6-(3-iodo-2-phenyl-1H-pyrrolo[2,3-b]pyridin-5-yl)pyridine-2-carboxamide] | 5.00 to 10.00 | 5.00 to 10.00 |
| N#CC1(CNC(=O)c2cccc(-c3cnc4[nH]c(-c5ccccc5)cc4c3)n2)CC1 [Compound P-0137, N-[(1-cyanocyclopropyl)methyl]-6-(2-phenyl-1H-pyrrolo[2,3-b]pyridin-5-yl)pyridine-2-carboxamide] | 5.00 to 10.00 | 5.00 to 10.00 |
| CC(C)(C#N)CNC(=O)c1cccc(-c2cnc3[nH]c(-c4ccccc4)c(Cl)c3c2)n1 [Compound P-0138, 6-(3-chloro-2-phenyl-1H-pyrrolo[2,3-b]pyridin-5-yl)-N-(2-cyano-2-methyl-propyl)pyridine-2-carboxamide] | 5.00 to 10.00 | 5.00 to 10.00 |
| N#CC1(NC(=O)c2cccc(-c3cnc4[nH]c(-c5ccccc5)c(Cl)c4c3)n2)CC1 [Compound P-0139, 6-(3-chloro-2-phenyl-1H-pyrrolo[2,3-b]pyridin-5-yl)-N-(1-cyanocyclopropyl)pyridine-2-carboxamide] | 5.00 to 10.00 | 5.00 to 10.00 |
| CC(C)(C)NC(=O)c1cccc(-c2cnc3[nH]c(-c4ccccc4)cc3c2)n1 [Compound P-0140, N-tert-butyl-6-(2-phenyl-1H-pyrrolo[2,3-b]pyridin-5-yl)pyridine-2-carboxamide] | 5.00 to 10.00 | 5.00 to 10.00 |
| CC(C)(C#N)CNC(=O)c1cccc(-c2cnc3[nH]c(C4=CCN(C(=O)C5CC5)C4)cc3c2)n1 [Compound P-0141, N-(2-cyano-2-methyl-propyl)-6-[2-[1-(cyclopropanecarbonyl)-2,5-dihydropyrrol-3-yl]-1H-pyrrolo[2,3-b]pyridin-5-yl]pyridine-2-carboxamide] | 5.00 to 10.00 | 5.00 to 10.00 |

Other lines, results leading:

| pIC50 (FLT3-ITD) | pIC50 [1] | SMILES |
| --- | --- | --- |
| 5.00 to 10.00 | 5.00 to 10.00 | N#CC1CCN(C(=O)c2cccc(-c3cnc4[nH]c(C5=CCCCC5)cc4c3)n2)C1 (stereo not shown) [Compound P-0120, 1-[6-[2-(cyclohexen-1-yl)-1H-pyrrolo[2,3-b]pyridin-5-yl]pyridine-2-carbonyl]pyrrolidine-3-carbonitrile] |
| 5.00 to 10.00 | 5.00 to 10.00 | N#C[C@@H]1CCN(C(=O)c2cccc(-c3cnc4[nH]c(-c5ccccc5)cc4c3)n2)C1 [Compound P-0122, (3R)-1-[6-(2-phenyl-1H-pyrrolo[2,3-b]pyridin-5-yl)pyridine-2-carbonyl]pyrrolidine-3-carbonitrile] |
| 5.00 to 10.00 | 5.00 to 10.00 | Cc1cc(C#N)ccc1-c1cc2cc(-c3cccc(C(=O)N4CCC(C#N)C4)n3)cnc2[nH]1 (stereo not shown) [Compound P-0130, 1-[6-[2-(4-cyano-2-methyl-phenyl)-1H-pyrrolo[2,3-b]pyridin-5-yl]pyridine-2-carbonyl]pyrrolidine-3-carbonitrile] |
| 5.00 to 10.00 | 5.00 to 10.00 | CC1(C)CC=C(c2cc3cc(-c4cccc(C(=O)N5CCC(C#N)C5)n4)cnc3[nH]2)CC1 (stereo not shown) [Compound P-0131, 1-[6-[2-(4,4-dimethylcyclohexen-1-yl)-1H-pyrrolo[2,3-b]pyridin-5-yl]pyridine-2-carbonyl]pyrrolidine-3-carbonitrile] |
| 5.00 to 10.00 | 5.00 to 10.00 | N#CC1CCN(C(=O)c2cccc(-c3cnc4[nH]c(C5=CCOCC5)cc4c3)n2)C1 (stereo not shown) [Compound P-0132, 1-[6-[2-(3,6-dihydro-2H-pyran-4-yl)-1H-pyrrolo[2,3-b]pyridin-5-yl]pyridine-2-carbonyl]pyrrolidine-3-carbonitrile] |
| 5.00 to 10.00 | 5.00 to 10.00 | N#Cc1cccc(-c2cc3cc(-c4cccc(C(=O)N5CCC(C#N)C5)n4)cnc3[nH]2)c1 (stereo not shown) [Compound P-0133, 1-[6-[2-(3-cyanophenyl)-1H-pyrrolo[2,3-b]pyridin-5-yl]pyridine-2-carbonyl]pyrrolidine-3-carbonitrile] |
| 5.00 to 10.00 | 5.00 to 10.00 | N#CC1CCN(C(=O)c2cccc(-c3cnc4[nH]c(-c5cnn(C(F)F)c5)cc4c3)n2)C1 (stereo not shown) [Compound P-0134, 1-[6-[2-[1-(difluoromethyl)pyrazol-4-yl]-1H-pyrrolo[2,3-b]pyridin-5-yl]pyridine-2-carbonyl]pyrrolidine-3-carbonitrile] |
| 5.00 to 10.00 | 5.00 to 10.00 | CC(C)(C)OC(=O)N1CC=C(c2cc3cc(-c4cccc(C(=O)N5CCC(C#N)C5)n4)cnc3[nH]2)C1 (stereo not shown) [Compound P-0135, tert-butyl 3-[5-[6-(3-cyanopyrrolidine-1-carbonyl)-2-pyridyl]-1H-pyrrolo[2,3-b]pyridin-2-yl]-2,5-dihydropyrrole-1-carboxylate] |
| 5.00 to 10.00 | 5.00 to 10.00 | N#CC1CCN(C(=O)c2cccc(-c3cnc4[nH]c(C5=CCN(C(=O)C6CC6)C5)cc4c3)n2)C1 (stereo not shown) [Compound P-0136, 1-[6-[2-[1-(cyclopropanecarbonyl)-2,5-dihydropyrrol-3-yl]-1H-pyrrolo[2,3-b]pyridin-5-yl]pyridine-2-carbonyl]pyrrolidine-3-carbonitrile] |
